ChEMBL document CHEMBL3763083, “Sulfasalazine in ionic liquid form with improved solubility and exposure” (Medchemcomm, 2015)
Values after ≈ are worked out from the molar mass of the structure shown.

Experiments:
[1] = Thermal stability of compound after 30 mins by thermogravimetric analysis; assay type: physicochemical; settings: 0.5 h
[2] = Cmax in rat plasma at 50 mg/kg dosed via oral gavage; assay type: ADME, organism-based; set-up: dose 50 mg/kg, route oral
[3] = Tmax in rat plasma at 50 mg/kg dosed via oral gavage; assay type: ADME, organism-based
[4] = Solubility of compound in stimulated intestinal fluid at pH 6.8 measured at 0.5 to 3 hrs by LC/MS analysis; assay type: ADME; settings: simulated gi fluid
Liver = assay: Drug metabolism in rat liver S9 fractions at 1 uM measured at 0 to 60 mins by LC/MS analysis; assay type: ADME, subcellular, Liver S9 fraction; settings: s9, 1 µM
[5] = AUC(infinity) in rat at 50 mg/kg dosed via oral gavage; assay type: ADME, organism-based; set-up: dose 50 mg/kg, route oral, time infinity; settings: in vivo
[6] = Solubility of compound in stimulated GI fluid at pH 1.1 measured at 15 to 60 mins by LC/MS analysis; assay type: ADME; settings: buffer
[7] = Drug recovery in rat bile at 50 mg/kg dosed via oral gavage; assay type: ADME, organism-based; settings: read-out: Drug recovery
[8] = Solubility of compound in saline solution after 1 hr by LC/MS analysis; assay type: physicochemical; settings: buffer
[9] = Oral bioavailability in rat plasma at 50 mg/kg dosed via gavage; assay type: ADME, organism-based
[10] = Solubility of compound in methanol after 2 hrs; assay type: physicochemical
[11] = Solubility of compound in phosphate buffer at pH 8 after 1 hr by LC/MS analysis; assay type: physicochemical; settings: pH 8, 1 h

Row | Structure (SMILES) | T [1] [°C] | Cmax [2] [nM] | Tmax [3] [min] | solubility [4] | Drug metabolism (Liver) | AUC(0-inf) [5] [µM·h] | solubility [6] | dose excreted [7] [%] | solubility [8] [µg/mL] | bioavailability [9] [%] | solubility [10] | solubility [11] [µg/mL]
1 | C[N+](C)(C)CCO.O=C([O-])c1cc(/N=N/c2ccc(S(=O)(=O)Nc3ccccn3)cc2)ccc1O | 214 | 2360 | 15 | soluble | metabolite_detected | 9.34 | soluble | 1.8 | 39320 | 5.6 |  | 
2 | O=C(O)c1cc(/N=N/c2ccc(S(=O)(=O)Nc3ccccn3)cc2)ccc1O [SULFASALAZINE] | 253 |  |  | soluble | metabolite_detected |  | soluble |  | 10 (≈ 0.0251 mM) |  | soluble | 3090 (≈ 7.76 mM)
